Reference: patent US9586963B2 (GENFIT, priority 2011, dated 2017)

Tests used:
Rev-Erb alpha = target: T1, Rev-Erb alpha (Homo sapiens, UniProt P20393); assay: M2H (mammalian two-hybrid) cellular activation assay of Rev-Erb alpha; assay type: cell-based; settings: M2H assay, HEK293 cells; for EC50: Gal4-Rev-Erb alpha / VP16-NCoR, luciferase reporter; for Emax: relative to DMSO, at the tested dose, read-out: TOP activation
T1 sequence (P20393 284-614 limits assumed): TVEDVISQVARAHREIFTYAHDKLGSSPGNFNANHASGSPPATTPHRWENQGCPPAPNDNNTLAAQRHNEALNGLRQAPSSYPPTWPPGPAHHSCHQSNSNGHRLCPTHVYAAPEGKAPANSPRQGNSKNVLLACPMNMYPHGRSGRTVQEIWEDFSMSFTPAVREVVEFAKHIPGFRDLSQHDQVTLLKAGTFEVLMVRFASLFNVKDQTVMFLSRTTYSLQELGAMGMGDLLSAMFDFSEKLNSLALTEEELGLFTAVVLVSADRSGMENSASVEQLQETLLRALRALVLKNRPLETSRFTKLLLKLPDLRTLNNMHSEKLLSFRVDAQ
Method in brief: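 Six-point dose-response, 18 h, 37 °C, serum-free, in HEK293 cells carrying a Gal4-RE luciferase reporter with Gal4-Rev-Erb alpha or beta plus VP16-NCoR (corepressor interaction readout). EC50 and TOP activation (%) derived from luminescence across four experiments.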

Row | EC50 (Rev-Erb alpha) [nM] | melting point [°C] | Emax (Rev-Erb alpha) [%] | Compound
1 | 100 to 1000 | 161 to 162 | – | Clc1ccc(Oc2ccc3nnc(Cl)n3n2)c(Cc2ccccc2)c1 [Cpd.4-146, 6-(2-benzyl-4-chloro-phenoxy)-3-chloro-[1,2,4]triazolo[4,3-b]pyridazine]
2 | 1000 to 6000 | 94.5 to 96.1 | – | Fc1ccc(Oc2ccc3nnc(Cl)n3n2)c(-c2cccc(C(F)(F)F)c2)c1 [Cpd.4-148, 3-chloro-6-(5-fluoro-3′-(trifluoromethyl)biphenyl-2-yloxy)-[1,2,4]triazolo[4,3-b]pyridazine]
3 | 1000 to 6000 | 73.7 to 76.9 | – | COc1cccc(-c2cc(F)ccc2Oc2ccc3nnc(C(F)(F)F)n3n2)c1 [Cpd.4-149, 3-(trifluoromethyl)-6-(5-fluoro-3′-methoxybiphenyl-2-yloxy)-[1,2,4]triazolo[4,3-b]pyridazine]
4 | 1000 to 6000 | 52 to 55 | – | COc1cccc(-c2cc(F)c(F)cc2Oc2ccc3nnc(C(F)(F)F)n3n2)c1 [Cpd.4-150, 3-(trifluoromethyl)-6-(4,5-difluoro-3′-methoxybiphenyl-2-yloxy)-[1,2,4]triazolo[4,3-b]pyridazine]
5 | 1000 to 6000 | 193 to 195 | – | Oc1cccc(-c2cc(F)c(F)cc2Oc2ccc3nnc(C(F)(F)F)n3n2)c1 [Cpd.4-151, 3-(trifluoromethyl)-6-(4,5-difluoro-3′-hydroxybiphenyl-2-yloxy)-[1,2,4]triazolo[4,3-b]pyridazine]
6 | 1000 to 6000 | 102 | – | COc1cccc(-c2cc(F)c(F)cc2Oc2ccc3nnc(Cl)n3n2)c1 [Cpd.4-152, 3-chloro-6-(4,5-difluoro-3′-methoxybiphenyl-2-yloxy)-[1,2,4]triazolo[4,3-b]pyridazine]
7 | 1000 to 6000 | 208 to 209 | – | N#Cc1ccc(Oc2ccc3nnc(Cl)n3n2)c(-c2ccccc2)c1 [Cpd.4-154, 3-chloro-6-(5-cyanobiphenyl-2-yloxy)-[1,2,4]triazolo[4,3-b]pyridazine]
8 | > 6000 | 70 to 70.4 | > 130 | Clc1nnc2ccc(Oc3ccc(CN4CCCCC4)cc3-c3ccccc3)nn12 [Cpd.4-156, 3-chloro-6-(5-piperidin-1-ylmethylbiphenyl-2-yloxy)-[1,2,4]triazolo[4,3-b]pyridazine]
9 | 1000 to 6000 | 62.2 to 64.9 | – | Clc1nnc2ccc(Oc3ccc(CNC4CC4)cc3-c3ccccc3)nn12 [Cpd.4-161, 3-chloro-6-(5-(cyclopropylaminomethyl)biphenyl-2-yloxy)-[1,2,4]triazolo[4,3-b]pyridazine]
10 | 1000 to 6000 | 53.4 to 55.7 | – | Clc1nnc2ccc(Oc3ccc(CNCC4CCCCC4)cc3-c3ccccc3)nn12 [Cpd.4-162, 3-chloro-6-(5-((cyclohexylmethyl)aminomethyl)biphenyl-2-yloxy)-[1,2,4]triazolo[4,3-b]pyridazine]
11 | 1000 to 6000 | 59.1 | – | CC(C)N(Cc1ccc(Oc2ccc3nnc(Cl)n3n2)c(-c2ccccc2)c1)C(C)C [Cpd.4-166, 3-chloro-6-(5-(diisopropylaminomethyl)biphenyl-2-yloxy)-[1,2,4]triazolo[4,3-b]pyridazine]
12 | 100 to 1000 | 145 to 150 | – | CC(C)CCNc1ccc(-c2ccccc2)c(Oc2ccc3nnc(Cl)n3n2)c1 [Cpd.4-175, 3-chloro-6-(4-((3-methylbutyl)amino)biphenyl-2-yloxy)-[1,2,4]triazolo[4,3-b]pyridazine]
13 | 1000 to 6000 | 163 to 164 | – | Clc1nnc2ccc(Oc3cc(CN4CCCCC4)ccc3-c3ccccc3)nn12 [Cpd.4-183, 3-chloro-6-(4-piperidin-1-ylmethylbiphenyl-2-yloxy)-[1,2,4]triazolo[4,3-b]pyridazine]
14 | 1000 to 6000 | 110 to 112 | – | CCN(CC)Cc1ccc(-c2ccccc2)c(Oc2ccc3nnc(Cl)n3n2)c1 [Cpd.4-184, 3-chloro-6-(4-diethylaminomethylbiphenyl-2-yloxy)-[1,2,4]triazolo[4,3-b]pyridazine]
15 | 100 to 1000 | 154 to 159 | – | Clc1nnc2ccc(Oc3cc(NCCC4CCCCC4)ccc3-c3ccccc3)nn12 [Cpd.4-185, 3-chloro-6-(4-((cyclohexylethyl)amino)biphenyl-2-yloxy)-[1,2,4]triazolo[4,3-b]pyridazine]
16 | 1000 to 6000 | 190.5 | – | O=[N+]([O-])c1cccc(-c2cc(F)ccc2Oc2ccc3nnc(Cl)n3n2)c1 [Cpd.4-187, 3-chloro-6-(5-fluoro-3′-nitrobiphenyl-2-yloxy)-[1,2,4]triazolo[4,3-b]pyridazine]

Row | EC50 (Rev-Erb alpha) [nM] | melting point [°C] | Emax (Rev-Erb alpha) [%] | Compound
17 | 100 to 1000 | 143.6 | – | Fc1ccc(-c2cc(F)ccc2Oc2ccc3nnc(Cl)n3n2)c(F)c1 [Cpd.4-188, 3-chloro-6-(5,2′,4′-trifluorobiphenyl-2-yloxy)-[1,2,4]triazolo[4,3-b]pyridazine]
18 | < 100 | 170 to 175 | – | CC(C)Nc1ccc(-c2ccccc2)c(Oc2ccc3nnc(Cl)n3n2)c1 [Cpd.4-189, 3-chloro-6-(4-isopropylamino-biphenyl-2-yloxy)-[1,2,4]triazolo[4,3-b]pyridazine]
19 | 1000 to 6000 | 52 to 57 | – | COC(=O)CCNc1ccc(Oc2ccc3nnc(Cl)n3n2)c(-c2ccccc2)c1 [Cpd.4-190, 3-chloro-6-(5-methyloxycarbonylethylamino-biphenyl-2-yloxy)-[1,2,4]triazolo[4,3-b]pyridazine]
20 | 1000 to 6000 | 163 to 165 | – | CCC(=O)Nc1ccc(Oc2ccc3nnc(Cl)n3n2)c(-c2ccccc2)c1 [Cpd.4-191, 3-chloro-6-(5-ethylcarbonylamino-biphenyl-2-yloxy)-[1,2,4]triazolo[4,3-b]pyridazine]
21 | 100 to 1000 | 130 to 132 | – | COc1ncc(F)cc1-c1ccc(C(F)(F)F)cc1Oc1cc(C)c2nnc(Cl)n2n1 [Cpd.4-193, 3-chloro-8-methyl-6-((2-(2-methoxy-5-fluoropyridin-3-yl))-5-(trifluoromethyl)-phenoxy)-[1,2,4]triazolo[4,3-b]pyridazine]
22 | > 6000 | 152 to 155 | > 130 | Clc1ccc(Oc2ccc3nnc(Cl)n3n2)c(-c2cncnc2)c1 [Cpd.4-194, 3-chloro-6-(4-chloro-2-(pyrimidin-5-yl)phenoxy)-[1,2,4]triazolo[4,3-b]pyridazine]
23 | > 6000 | 210 to 211 | > 130 | COc1ncc(-c2cc(Cl)ccc2Oc2ccc3nnc(Cl)n3n2)cn1 [Cpd.4-195, 3-chloro-6-(4-chloro-2-(2-methoxypyrimidin-5-yl)phenoxy)-[1,2,4]triazolo[4,3-b]pyridazine]
24 | 1000 to 6000 | 212 to 214 | – | Cc1ccc(-c2ccc(C(F)(F)F)cc2Oc2ccc3nnc(Cl)n3n2)cn1 [Cpd.4-196, 3-chloro-6-(2-(6-methylpyridin-3-yl)-5-(trifluoromethyl)phenoxy)-[1,2,4]triazolo[4,3-b]pyridazine]
25 | 100 to 1000 | 213 to 215 | – | Fc1ccc2c(c1)c(Oc1cc(C(F)(F)F)ccc1-c1ccccc1)nn1c(Cl)nnc21 [Cpd.5-3, 3-chloro-6-(4-trifluoromethyl-biphenyl-2-yloxy)-8-fluoro-[1,2,4]triazolo[3,4-a]phthalazine]
26 | 100 to 1000 | 190 to 192 | – | FC(F)(F)c1ccc(-c2ccccc2)c(Oc2nn3c(Cl)nnc3cc2-c2ccccc2)c1 [Cpd.5-5, 3-chloro-7-phenyl-6-(4-trifluoromethyl-biphenyl-2-yloxy)-[1,2,4]triazolo[4,3-b]pyridazine]
27 | < 100 | 169 to 172 | – | Cc1cc(Oc2cc(C(F)(F)F)ccc2-c2ccccc2)nn2c(Cl)nnc12 [Cpd.5-6, 3-chloro-8-methyl-6-(4-trifluoromethyl-biphenyl-2-yloxy)-[1,2,4]triazolo[4,3-b]pyridazine]
28 | 100 to 1000 | 163 to 165 | – | Cc1cc2nnc(Cl)n2nc1Oc1cc(C(F)(F)F)ccc1-c1ccccc1 [Cpd.5-7, 3-chloro-7-methyl-6-(4-trifluoromethyl-biphenyl-2-yloxy)-[1,2,4]triazolo[4,3-b]pyridazine]
29 | 100 to 1000 | 229 to 231 | – | Cc1ccc2c(Oc3cc(C(F)(F)F)ccc3-c3ccccc3)nn3c(Cl)nnc3c2c1 [Cpd.5-9, 3-chloro-6-(4-trifluoromethyl-biphenyl-2-yloxy)-9-methyl-[1,2,4]triazolo[3,4-a]phthalazine]
30 | 100 to 1000 | 195 to 197 | – | Cc1ccc2c(c1)c(Oc1cc(C(F)(F)F)ccc1-c1ccccc1)nn1c(Cl)nnc21 [Cpd.5-10, 3-chloro-6-(4-trifluoromethyl-biphenyl-2-yloxy)-8-methyl-[1,2,4]triazolo[3,4-a]phthalazine]
31 | 100 to 1000 | 55 to 58 | – | CC(C)c1cc2nnc(Cl)n2nc1Oc1cc(C(F)(F)F)ccc1-c1ccccc1 [Cpd.5-11, 3-chloro-7-isopropyl-6-(4-trifluoromethyl-biphenyl-2-yloxy)-[1,2,4]triazolo[4,3-b]pyridazine]
32 | 100 to 1000 | 139.5 to 141.8 | – | CCc1cc(Oc2cc(C(F)(F)F)ccc2-c2ccccc2)nn2c(Cl)nnc12 [Cpd.5-13, 3-chloro-8-ethyl-6-(4-trifluoromethyl-biphenyl-2-yloxy)-[1,2,4]triazolo[4,3-b]pyridazine]
